{
  "source": "paper PMC7582705",
  "about": "“Structure-Based Discovery of Novel Chemical Classes of Autotaxin Inhibitors” (International Journal of Molecular Sciences, 2020)",
  "key": {"[1]": {"target": "T1, ATX (Homo sapiens, UniProt Q13822)", "settings": "LPC assay; cited from earlier work"}, "[2]": {"target": "T1, ATX", "assay": "IC50 Eleanna (Table S2, method not described)", "format": "biochemical", "settings": "Table S2; read-out: IC50 Eleanna"}, "[3]": {"assay": "Solubility (Table S1)", "settings": "YES/NO"}, "[4]": {"target": "T2, mouse ATX (Mus musculus, UniProt Q9R1E6)", "T2 construct": "purchased Sino Biological", "assay": "Amplex Red Lyso-phospholipase D assay, mouse ATX", "format": "biochemical", "protocol": "All compounds proposed were assessed for their ATX inhibitory activity in vitro using the Amplex Red assay. The Amplex Red Lyso-phospholipase D assay is a fluorometry-based assay providing a sensitive method for measuring Lyso-phospholipase D (ATX) activity in vitro. In this enzyme-coupled assay, ATX activity is monitored indirectly using 10-acetyl-3,7-dihydrophenoxazine (Amplex Red reagent), a sensitive fluorogenic probe for H2O2. ATX initially cleaves the Lysophosphatidylcholine (LPC) substrate to yield choline and Lysophosphatidic acid (LPA), while choline gets subsequently oxidized by choline oxidase to betaine and H2O2. Lastly, H2O2, in the presence of horseradish peroxidase (HRP), reacts with Amplex Red reagent in a 1:1 stoichiometry to generate the highly fluorescent product resorufin.\nThe inhibition assay was performed as previously described with some modifications in order to accommodate the newly-discovered lag phase in ATX kinetics. To this end, and in order to provide adequate time to the hydrolysis of LPC by ATX, we added a 30min incubation period between ATX, inhibitors and LPC. Briefly, 2 μL of different concentrations of inhibitors diluted in DMSO (Sigma-Aldrich, St. Louis, MO, USA) were incubated with 50 µL of ATX 8 nM (human or mouse ATX from Sino Biological), and 48 µL reaction buffer (50 mM Tris-Cl pH 8.0 from Thermo Fisher Scientific, Waltham, MA, USA and 5 mM CaCl2 from Honeywell-Fluka, Charlotte, NC, USA) in a black 96-well microplate for 15 min at 37 °C. Thence, another 50 µL of reaction buffer with 200 μM LPC substrate 16:0 (Avanti Polar Lipids Inc, Alabaster, AL, USA) (final concentrations of LPC and ATX are 50 µM and 2 nM, respectively) was added to the reaction mixture and incubated for 30 min at 37 °C in order for ATX to convert LPC to LPA and choline. Finally, 50 µL of working solution containing 200 μM Amplex Red (Invitrogen, Carlsbad, CA, USA), 4 U/mL HRP (Sigma-Aldrich, St. Louis, MO, USA), 0.4 U/mL choline oxidase (Sigma-Aldrich, St. Louis, MO, USA) in 50 mM Tris-HCl pH 8.0 and 5 mM CaCl2 was added to measure the produced choline. The reaction was monitored at 37 °C in a fluorescence plate reader using excitation at 530 nm and reading at 590 nm, every 5 min for 30 min. The velocity of the reaction and the remaining activity of ATX were calculated at the linear phase of the reaction and dose-response inhibition graphs were plotted with GraphPad Software (GraphPad Software, San Diego, CA, USA). […] In order to evaluate a possible effect of the compounds on the second (choline oxidase) and third (HRP) enzymes of the Amplex Red assay, we also performed the assay in the absence of ATX but in the presence of the compounds. Instead of ATX, we added choline chloride at a final concentration of 2 µM so as the second and third steps of the assay could proceed normally."}, "[5]": {"target": "T2, mouse ATX", "assay": "Mode of inhibition, modified Amplex assay, Lineweaver-Burk plots", "format": "biochemical", "settings": "various LPC and inhibitor concentrations", "protocol": "Lastly, to get insight into the mode of inhibition of the new ATX inhibitors developed in the present study, the Lineweaver–Burk plots were performed.\nTo determine the mode of inhibition of ATX by each inhibitor, a modified Amplex assay was employed. […] Mouse ATX from Sino Biological was used in all mode of inhibition assays. Thereafter, the velocity (V) of the reaction was calculated and the reciprocal of velocity (1/V) was plotted against the reciprocal of substrate concentration (1/S) in Lineweaver–Burk graphs using GraphPad Software (GraphPad Software, San Diego, CA, USA)."}, "[6]": {"target": "T1, ATX", "assay": "Amplex Red Lyso-phospholipase D assay, human ATX", "format": "biochemical", "design": "purchased Sino Biological", "settings": "for inhibition at 30 µM: Table S2, at 30uM, read-out: %inhibition at 30uM"}, "[7]": {"target": "phosphodiesterase (PDE)", "assay": "Phosphodiesterase (PDE) colorimetric assay, 3',5'-cAMP and 3',5'-cGMP as substrates", "format": "biochemical", "text": "This colorimetric assay kit uses 3′,5′-cAMP and 3′,5′-cGMP as substrates, and it is useful for the screening of inhibitors of nucleotide phosphodiesterase activity."}, "[8]": {"target": "T1, ATX", "settings": "cited from earlier work"}, "[9]": {"settings": "recombinant mouse ATX 2 nM, LPC 16:0 substrate, Amplex Red, read-out: IC50 mATX"}, "[10]": {"settings": "recombinant human ATX 2 nM, LPC 16:0 substrate, Amplex Red, read-out: IC50 hATX"}},
  "note": "Where two headings read alike, the source gives them in different places.",
  "data": [
    {"smiles": "CCCCCCCCCCCCCC(=O)Nc1ccc(CP(=O)(O)O)cc1", "note": "[Compound S32826]", "values": [
      {"measurement": "IC50", "setting": "[1]", "value": 0.0056, "unit": "µM"}
    ]},
    {"smiles": "CCOC(=O)c1sc(SCc2ccccc2)c2c1CC(c1ccc(C)cc1)CC2O", "note": "(stereo not shown) [KM03601, ethyl 3-benzylsulfanyl-4-hydroxy-6-(4-methylphenyl)-4,5,6,7-tetrahydro-2-benzothiophene-1-carboxylate]", "values": [
      {"measurement": "IC50", "setting": "[2]", "value": 0.5, "unit": "µM"},
      {"measurement": "Solubility", "setting": "[3]", "value": "YES"},
      {"measurement": "IC50", "setting": "[4]; in vitro IC50 (mATX 2nM), Table S2, mATX 2nM", "value": 15, "unit": "µM"},
      {"measurement": "IC50", "setting": "[4]; [9]", "value": 14.9, "unit": "µM"},
      {"measurement": "Mode of Inhibition", "setting": "[5]", "value": "competitive"},
      {"measurement": "inhibition at 30 µM", "setting": "[6]", "value": 43.6, "unit": "%"},
      {"measurement": "IC50", "setting": "[6]; in vitro IC50 (Sino hATX 2nM), Table S2, Sino hATX 2nM", "value": 30.6, "unit": "µM"},
      {"measurement": "IC50", "setting": "[6]; in vitro IC50 (hATX 1nM), Table S2, hATX 1nM", "value": 10, "unit": "µM"},
      {"measurement": "IC50", "setting": "[6]; [10]", "value": 30.5, "unit": "µM"}
    ]},
    {"smiles": "CCOC(=O)C1CCN(C(=O)Cc2c(Sc3ccc(Cl)cc3)[nH]c3ccccc23)CC1", "note": "[KM-24, ethyl 1-[2-[2-(4-chlorophenyl)sulfanyl-1H-indol-3-yl]acetyl]piperidine-4-carboxylate]", "values": [
      {"measurement": "IC50", "setting": "[2]", "value": 0.5, "unit": "µM"},
      {"measurement": "IC50", "setting": "[4]; [9]", "value": 6.5, "unit": "µM"},
      {"measurement": "Mode of Inhibition", "setting": "[5]", "value": "mixed"},
      {"measurement": "inhibition at 30 µM", "setting": "[6]", "value": 69.8, "unit": "%"},
      {"measurement": "IC50", "setting": "[6]; [10]", "value": 14.6, "unit": "µM"}
    ]},
    {"smiles": "COc1cccc(NC(=S)N2CCn3cccc3C2c2ccc(OC)c(OC)c2)c1", "note": "(stereo not shown) [KM-26, 1-(3,4-dimethoxyphenyl)-N-(3-methoxyphenyl)-3,4-dihydro-1H-pyrrolo[1,2-a]pyrazine-2-carbothioamide]", "values": [
      {"measurement": "IC50", "setting": "[2]", "value": 0.8, "unit": "µM"},
      {"measurement": "IC50", "setting": "[4]; [9]", "value": 7.4, "unit": "µM"},
      {"measurement": "Mode of Inhibition", "setting": "[5]", "value": "competitive"},
      {"measurement": "inhibition at 30 µM", "setting": "[6]", "value": 83.3, "unit": "%"},
      {"measurement": "IC50", "setting": "[6]; [10]", "value": 5.6, "unit": "µM"},
      {"measurement": "IC50", "setting": "[7]", "value": 2.8, "unit": "µM"},
      {"measurement": "activity against PDE", "setting": "[7]; in words", "value": "outstanding activity"}
    ]},
    {"smiles": "N[C@@H](Cc1c[nH]cn1)C(=O)O", "note": "[L-Histidine]", "values": [
      {"measurement": "IC50 (ATX inhibition)", "setting": "[8]", "value": "millimolar range"}
    ]},
    {"smiles": "O=C(CCN1CCN(C(=O)OCc2cc(Cl)cc(Cl)c2)CC1)c1ccc2[nH]c(=O)oc2c1", "note": "[PF-8380, 3,5-Dichlorobenzyl 4-(3-oxo-3-(2-oxo-2,3-dihydrobenzo[d]oxazol-6-yl)propyl)piperazine-1-carboxylate, reference compound]", "values": [
      {"measurement": "Solubility", "setting": "[3]", "value": "YES"},
      {"measurement": "Mode of Inhibition", "setting": "[5]", "value": "competitive"},
      {"measurement": "IC50", "setting": "[7]", "value": 0.0011, "unit": "µM"}
    ]},
    {"smiles": "Cc1[nH]c2ccccc2c1C1=CCN(S(=O)(=O)c2cccc3nsnc23)CC1", "note": "[SC-41, 4-{[4-(2-Methyl-1H-indol-3-yl)-3,6-dihydropyridin-1(2H)-yl]sulfonyl}-2,1,3-benzothiadiazole]", "values": [
      {"measurement": "IC50", "setting": "[2]", "value": 2.3, "unit": "µM"},
      {"measurement": "IC50", "setting": "[4]; [9]", "value": 4, "unit": "µM"},
      {"measurement": "Mode of Inhibition", "setting": "[5]", "value": "uncompetitive"},
      {"measurement": "inhibition at 30 µM", "setting": "[6]", "value": 70.6, "unit": "%"},
      {"measurement": "IC50", "setting": "[6]; [10]", "value": 13.6, "unit": "µM"}
    ]}
  ]
}
